Data published in patent US20210340629A1, “BIOMARKERS FOR CANCER THERAPY” (The Council of the Queensland Institute of Medical Research, priority 2018, published 2021).

Assays:
[1] = system: LC3B; experiment: EGFP-LC3B immunofluorescence analysis (punctate pattern); type: cell-based, human; settings: D05 and C092 cell lines, 5 μM, 8 hours, data not shown
Protocol: Retroviral constructs expressing short hairpin RNA to G9a (shG9a) or a non-silencing control (shNS) were used as previously described (Casciello et al. (2017) Proc Natl Acad Sci USA 114, 7077-7082). pBABE-puro mCherry-EGFP-LC3B was obtained from Addgene (plasmid #22418) (N'Diaye et al. (2009) EMBO reports 10, 173-179). The viral supernatants were prepared by co-transfecting the constructs with pUMVC3 and pVSV-G into HEK293T cells using Superfect transfection reagent (Qiagen). The supernatants were harvested and used to infect cells in medium, which contained 8 μg/ml polybrene. Cell medium was replaced and fresh growth medium was added after 24 h. Cells were harvested 72 h later or selected using 1 μg/ml of Puromycin sulfate.
Stable cells expressing EGFP-LC3B construct were treated with DMSO, UNC0642 at 5 μM or 20 nM Bafilomycin A1 (Sigma Aldrich) for 8 hours. Images were taken with an EVOS FL auto fluorescent microscope (Invitrogen) and quantitated using ImageJ software.

[2] = system: LC3B II; experiment: Immunoblotting analysis of LC3B I/II; type: cell-based, human; settings: D05 and C008 cell lines, 5 μM, 8 hours, FIG. 6
Protocol: For immunoblotting, protein whole cell lysates were prepared using RIPA lysis buffer containing 20 mM Tris, pH 8.0, 150 mM NaCl, 10% glycerol, 1% Nonidet P-40 containing protease inhibitor cocktail (Roche). Nuclear extracts were obtained using a standard high salt extraction buffer (20 mM HEPES (pH 7.9), 0.32 M NaCl, 1 mM EDTA, and 1 mM EGTA) supplemented with 1mM DU and protease inhibitor cocktail. Protein assays were performed according to the Bradford method using a protein assay kit (BioRad). […] of denatured proteins were separated using 10% sodium dodecyl sulfate-polyacrylamide gel electrophoresis (SDS-PAGE) and transferred to Polyvinylidene difluoride (PVDF) membranes. The membranes were blocked for 1 hour in 5% skim milk in Tris-buffered saline with Tween 20 (TBST; 10 mM Tris-HCl, 150 mM NaCl, 0.1% Tween 20). Immunoblotting was performed with primary anti G9a (#3306, Cell Signaling), H3K9me2 (ab 1220, Abcam), H3 (ab1791, Abcam) or Tubulin (ab6046, Abcam) and detected with either HRP-conjugated anti-rabbit (#7074, Cell Signaling Technology) or HRP-conjugated anti-mouse (#7076, Cell Signaling Technology). After applying ECL detection reagents (GE Healthcare), protein bands were visualized using X-ray film (Fujifilm).
Immunoblotting analysis was performed as described above, but also utilizing an anti-LC3B primary antibody (ab48394, Abcam).

[3] = system: MAP1LC3B promoter; experiment: Chromatin immunoprecipitation (ChIP) on the MAP1LC3B promoter; type: cell-based, human; settings: D05 cells, 5 μM, 24 h, FIG. 9
Protocol: In order to ascertain whether the inhibition of G9a directly impacts MAP1LC3B expression, chromatin immunoprecipitation (ChIP) was performed on the MAP1LC3B promoter. Changes in histone H3K9 dimethylation (H3K9me2) and acetylation (H3K9Ac), as well as the recruitment of RNA Pol II, were compared between vehicle or UNC0642 treated cells (FIG. 9). Consistent with the increase in gene expression observed in FIG. 8, there was a greater than 4-fold reduction in H3K9me2 concomitant with an increase in RNA Pol II recruitment at the MAP1LC3B promoter following UNC0642 treatment.
(§1) Quantitative RT-PCR and ChIP assays were conducted as previously described (Lee et al. (2010) Mol Cell 39, 71-85). Briefly, total RNA was isolated from either the tumor cells or from xenografts using Trizol (Invitrogen) and reverse transcription was performed from 2 μg of total RNA using the Superscript III cDNA synthesis system (Invitrogen). The abundance of mRNA was detected by an ABI VIIA7 system with SYBR Green Master Mix (Life Technologies). Primer pairs were designed to amplify 90-150 bp mRNA specific fragments and were confirmed as unique products by melting curve analysis. The quantity of mRNA was calculated using the ΔΔCt method and normalized to HPRT. All reactions were performed in triplicates.

[4] = system: MAP1LC3B; experiment: MAP1LC3B expression in excised D20 xenograft tumors (qRT-PCR, immunohistochemistry); type: in vivo, SCID mice; settings: 5 mg/kg
Protocol: as §1
Groups of 8 SCID mice per treatment group were used for xenograft studies to ensure adequate power to detect biological differences. All experiments were approved by the QIMR Berghofer Medical Research Institute Animal Ethics Committee. […] Tumor volumes (width2×length/2) were measured using a digital calliper, and presented as mean±SD. […]
Tumor sections were fixed in 4% paraformaldehyde. […] Aperio ImageScope software was used for imaging and quantitation of 5 non-overlapping tumor regions and evaluating the number of positive pixels per unit area in each region. Empty areas were manually excluded from quantification.
Quantitative RT-PCR was performed as described above.

SMILES: COc1cc2c(NC3CCN(C(C)C)CC3)nc(N3CCC(F)(F)CC3)nc2cc1OCCCN1CCCC1 [UNC0642]
- distribution of EGFP-LC3B (punctate pattern) [1]: increase in punctate pattern
- LC3B II protein levels [2]: dramatically increased
- RNA Pol II recruitment at the MAP1LC3B promoter [3]: increase
- reduction in H3K9me2 at the MAP1LC3B promoter [3]: greater than 4 fold
- expression of the MAP1LC3B gene in tumors (quantitative real time PCR) ([4]; compared to the vehicle treated group, P<0.01, FIG. 10C): statistically significant increase
- level of MAP1LC3B in the excised tumors (immunohistochemical analysis) ([4]; compared to vehicle, FIG. 10D): significantly increased
